# Reference: US20220298146A1, “HETEROCYCLIC DERIVATIVE AND USE THEREOF” (Transthera Sciences (Nanjing), Inc., priority 2019, published 2022)
# How the values were obtained:
# Tyro-3 (h) = molecular target: T1, Tyro-3 (h) (Homo sapiens, UniProt Q06418); test: Enzymatic activity assay, Tyro-3 (h) kinase, [γ-33P]-ATP; assay type: biochemical; details: 10 μM [γ-33P]-ATP, 40 min, room temperature; read-out: Inhibitory Activity on Tyro-3 (h), IC50
# T1 construct: purchased
# T1 sequence (Q06418 41-890): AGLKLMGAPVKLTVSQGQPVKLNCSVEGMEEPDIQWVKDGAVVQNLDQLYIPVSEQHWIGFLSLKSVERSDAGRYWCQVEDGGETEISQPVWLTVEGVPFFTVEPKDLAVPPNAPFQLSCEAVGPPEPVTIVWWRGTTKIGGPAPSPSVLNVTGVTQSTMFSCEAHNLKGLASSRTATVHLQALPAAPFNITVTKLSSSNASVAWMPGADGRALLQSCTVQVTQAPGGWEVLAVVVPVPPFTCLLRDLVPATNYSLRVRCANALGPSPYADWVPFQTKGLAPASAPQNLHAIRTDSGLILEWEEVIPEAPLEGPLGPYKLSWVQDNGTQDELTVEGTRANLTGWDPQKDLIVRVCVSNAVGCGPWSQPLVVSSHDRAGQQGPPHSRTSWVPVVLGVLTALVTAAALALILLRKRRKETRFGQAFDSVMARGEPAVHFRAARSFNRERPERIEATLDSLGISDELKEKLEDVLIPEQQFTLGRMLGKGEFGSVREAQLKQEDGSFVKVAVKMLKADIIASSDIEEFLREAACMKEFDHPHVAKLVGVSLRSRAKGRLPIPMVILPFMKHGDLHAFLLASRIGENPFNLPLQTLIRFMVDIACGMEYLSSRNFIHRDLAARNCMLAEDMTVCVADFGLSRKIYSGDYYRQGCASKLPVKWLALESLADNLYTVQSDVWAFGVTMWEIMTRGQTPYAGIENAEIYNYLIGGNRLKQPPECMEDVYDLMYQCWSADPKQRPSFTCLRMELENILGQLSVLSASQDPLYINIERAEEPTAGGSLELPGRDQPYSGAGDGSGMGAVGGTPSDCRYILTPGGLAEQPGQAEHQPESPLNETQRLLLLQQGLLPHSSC
# Description: (§1) Test samples: the compounds of the present invention, having structures and preparation methods shown above.
# (1) Preparation of Compound Stock Solutions
# (§2) Compounds were each dissolved in 100% DMSO to prepare stock solutions with a maximum concentration of 500 μM.
# (2) Preparation of Compound Working Solutions
# (§3) The compound stock solutions were diluted to final concentrations of 500 μM, 150 μM, 50 μM, 15 μM, 5 μM, 1.5 μM, 0.5 μM, 0.15 μM and 0.05 μM to prepare compound working solutions (50×).
# (3) Preparation of different enzymatic reaction solutions
# Tyro3 (h) enzyme was dissolved in a mixture of 8 mM MOPS (pH 7.0), 0.2 mM EDTA, 1 mM MnCl2 and 250 μM KVEKIGEGTYGVVYK to prepare an enzyme solution with a final concentration of 38 nM. An Mg/ATP mixture of 10 mM magnesium acetate and 10 μM [γ-^33P]-ATP was used to activate the enzymatic reaction.
# (§4) The compound working solutions were added to a 384-well plate, with final concentrations of 10000 nM, 3000 nM, 1000 nM, 300 nM, 100 nM, 30 nM, 10 nM, 3 nM and 1 nM, respectively, and then different enzymatic reaction solutions prepared according to the above conditions were added. The reaction solutions were incubated at room temperature for 40 min, and then 0.5% phosphoric acid solutions were added to terminate the reaction. 10 μL of the reaction solution was added dropwise to P30 filter paper which was washed 4 times with a 0.425% phosphoric acid solution and once with methanol and then placed in a scintillation counter for detection. Gray analysis was performed on the results with Image J software, and IC50 values were calculated with GraphPad 5.0 software.
# LCK (h) = molecular target: T2, LCK (h) (Homo sapiens, UniProt P06239); test: Enzymatic activity assay, LCK (h) kinase, [γ-33P]-ATP; assay type: biochemical; details: 10 μM [γ-33P]-ATP, 40 min, room temperature; read-out: Inhibitory Activity on LCK (h) kinase, IC50
# T2 construct: purchased
# T2 sequence (P06239 whole entry): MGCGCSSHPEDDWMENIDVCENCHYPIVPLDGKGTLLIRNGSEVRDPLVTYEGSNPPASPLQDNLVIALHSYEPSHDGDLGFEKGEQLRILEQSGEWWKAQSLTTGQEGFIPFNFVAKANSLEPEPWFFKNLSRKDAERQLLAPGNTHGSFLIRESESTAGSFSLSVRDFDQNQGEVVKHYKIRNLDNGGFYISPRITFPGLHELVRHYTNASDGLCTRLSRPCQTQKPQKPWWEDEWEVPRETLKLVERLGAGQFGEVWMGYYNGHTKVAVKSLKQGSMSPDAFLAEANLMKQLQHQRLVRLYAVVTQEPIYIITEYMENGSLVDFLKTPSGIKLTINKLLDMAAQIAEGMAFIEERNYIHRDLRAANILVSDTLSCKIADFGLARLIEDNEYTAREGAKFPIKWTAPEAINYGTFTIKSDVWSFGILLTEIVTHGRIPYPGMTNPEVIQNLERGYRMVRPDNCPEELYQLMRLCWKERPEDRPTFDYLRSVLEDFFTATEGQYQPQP
# Description: as §1
# Preparation of Compound Stock Solutions:
# as §2
# Preparation of Compound Working Solutions:
# as §3
# Preparation of Different Enzymatic Reaction Solutions:
# LCK (h) enzyme was dissolved in a mixture of 50 mM Tris (pH 7.5), 0.1 mM EGTA, 0.1 mM Na3VO4 and 250 μM KVEKIGEGTYGVVYK to prepare an enzyme solution with a final concentration of 45 nM. An Mg/ATP mixture of 10 mM magnesium acetate and 10 μM [γ-^33P]-ATP was used to activate the enzymatic reaction.
# as §4
Structure (SMILES),IC50 (Tyro-3 (h)) [nM],IC50 (LCK (h)) [nM]
"CC(C)n1cc(-c2ccc(F)cc2)c(=O)c(C(=O)Nc2ccc(Oc3ccnc(N)c3Cl)cn2)n1 [Compound 11, N-(5-((2-amino-3-chloropyridin-4-yl)oxy)pyridin-2-yl)-5-(4-fluorophenyl)-1-isopropyl-4-oxo-1,4-dihydropyridazine-3-carboxamide]",54,20
"CC(C)n1cc(-c2ccc(F)cc2)c(=O)c(C(=O)Nc2ncc(Oc3ccnc(N)c3Cl)cn2)n1 [Compound 12, N-(5-((2-amino-3-chloropyridin-4-yl)oxy)pyrimidin-2-yl)-5-(4-fluorophenyl)-1-isopropyl-4-oxo-1,4-dihydropyridazine-3-carboxamide]",23,53
"CC(C)n1cc(-c2ccc(F)cc2)c(=O)c(C(=O)Nc2ccc(Oc3ccnc(N)c3Cl)nc2)n1 [Compound 13, N-(6-((2-amino-3-chloropyridin-4-yl)oxy)pyridin-3-yl)-5-(4-fluorophenyl)-1-isopropyl-4-oxo-1,4-dihydropyridazine-3-carboxamide]",39,132
"Nc1nccc(Oc2ccc(NC(=O)c3nn(C4CC4)cc(-c4ccc(F)cc4)c3=O)nc2)c1Cl [Compound 17, N-(5-((2-amino-3-chloropyridin-4-yl)oxy)pyridin-2-yl)-1-cyclopropyl-5-(4-fluorophenyl)-4-oxo-1,4-dihydropyridazine-3-carboxamide]",31,24
"Nc1nccc(Oc2cnc(NC(=O)c3nn(C4CC4)cc(-c4ccc(F)cc4)c3=O)nc2)c1Cl [Compound 18, N-(5-((2-amino-3-chloropyridin-4-yl)oxy)pyrimidin-2-yl)-5-(4-fluorophenyl)-1-cyclopropyl-4-oxo-1,4-dihydropyridazine-3-carboxamide]",49,
"Nc1nccc(Oc2ccc(NC(=O)c3nn(C4CC4)cc(-c4ccc(F)cc4)c3=O)cn2)c1Cl [Compound 19, N-(6-((2-amino-3-chloropyridin-4-yl)oxy)pyridin-3-yl)-1-cyclopropyl-5-(4-fluorophenyl)-4-oxo-1,4-dihydropyridazine-3-carboxamide]",73,104
"Cn1cc(-c2ccc(F)cc2)c(=O)c(C(=O)Nc2ccc(Oc3ccnc(N)c3Cl)cn2)n1 [Compound 33, N-(5-((2-amino-3-chloropyridin-4-yl)oxy)pyridin-2-yl)-5-(4-fluorophenyl)-1-methyl-4-oxo-1,4-dihydropyridazine-3-carboxamide]",23,26
"C=CCn1cc(-c2ccc(F)cc2)c(=O)c(C(=O)Nc2ccc(Oc3ccnc(N)c3Cl)cn2)n1 [Compound 35, 1-allyl-N-(5-((2-amino-3-chloropyridin-4-yl)oxy)pyridin-2-yl)-5-(4-fluorophenyl)-4-oxo-1,4-dihydropyridazine-3-carboxamide]",24,20
C=CCn1cc(-c2ccc(F)cc2)c(=O)c(C(=O)Nc2ncc(Oc3ccnc(N)c3Cl)cn2)n1 [Compound 37],22,
"C=CCn1cc(-c2ccc(F)cc2)c(=O)c(C(=O)Nc2ccc(Oc3ccnc(N)c3Cl)nc2)n1 [Compound 39, 1-allyl-N-(6-((2-amino-3-chloropyridin-4-yl)oxy)pyridin-3-yl)-5-(4-fluorophenyl)-4-oxo-1,4-dihydropyridazine-3-carboxamide]",28,95
